This test concerns the target T1, human CaSR (Homo sapiens, UniProt P41180, E1011Q).
T1 construct: expressed in transfected cells; host or cells: 293E cells (EBNA1-expressing HEK293, ATCC CRL-10852), transient transfection with Fugene6
T1 sequence (P41180 20-1078 E1011Q): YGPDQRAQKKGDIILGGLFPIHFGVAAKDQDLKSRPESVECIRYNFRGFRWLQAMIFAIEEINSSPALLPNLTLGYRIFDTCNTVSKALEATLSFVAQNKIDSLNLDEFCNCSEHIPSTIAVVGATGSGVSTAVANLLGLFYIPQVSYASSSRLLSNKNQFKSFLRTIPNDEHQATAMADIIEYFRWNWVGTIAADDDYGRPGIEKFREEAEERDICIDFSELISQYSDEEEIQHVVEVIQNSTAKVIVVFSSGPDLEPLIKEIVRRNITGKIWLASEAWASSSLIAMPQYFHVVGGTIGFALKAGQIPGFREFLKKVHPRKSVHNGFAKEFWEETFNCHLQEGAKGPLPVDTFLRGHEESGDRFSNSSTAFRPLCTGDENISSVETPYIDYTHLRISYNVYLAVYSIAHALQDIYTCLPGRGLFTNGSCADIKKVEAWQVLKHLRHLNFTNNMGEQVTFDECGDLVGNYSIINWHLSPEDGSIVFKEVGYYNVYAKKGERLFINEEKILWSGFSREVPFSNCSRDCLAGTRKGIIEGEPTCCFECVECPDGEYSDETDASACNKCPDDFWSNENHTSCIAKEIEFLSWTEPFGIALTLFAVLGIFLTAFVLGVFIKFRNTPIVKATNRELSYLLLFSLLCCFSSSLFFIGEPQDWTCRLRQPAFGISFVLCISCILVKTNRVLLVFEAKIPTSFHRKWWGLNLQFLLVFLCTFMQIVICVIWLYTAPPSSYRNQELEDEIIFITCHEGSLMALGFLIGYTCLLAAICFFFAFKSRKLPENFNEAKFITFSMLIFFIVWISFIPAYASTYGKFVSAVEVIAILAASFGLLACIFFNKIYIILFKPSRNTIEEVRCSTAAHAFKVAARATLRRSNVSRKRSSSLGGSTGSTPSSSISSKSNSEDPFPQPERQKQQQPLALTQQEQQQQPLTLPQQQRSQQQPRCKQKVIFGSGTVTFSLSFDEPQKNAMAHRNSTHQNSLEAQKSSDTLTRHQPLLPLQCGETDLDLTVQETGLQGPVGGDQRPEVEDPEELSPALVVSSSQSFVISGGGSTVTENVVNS
Description: Evaluation of CaSR agonist activity (Ca2+ fluorescence, hCaSR-transfected 293E cells). It is filed as cell-based. The protocol:
293E Cells (EBNA1-expresion HEK293 cells, ATCC No. CRL-10852) were cultivated in DMEN/Ham's-F12 (3.15/mL glucose-containing Dulbecco's modified Eagle medium, available from Nakaraitesk Company) supplemented with 10% fetal calf serum, in the presence of 200 μg/mL of G418 (available from Genetisin). The cultured cells were inoculated in F25 flask at a density of 3×10^6 cells/10 mL, the flask was allowed to stand over 24 hours in a CO2 incubator (5% CO2, 37° C.), and then the human CaSR-expression plasmid hCaSR/pcDNA3.1 was transformed or transfected with a reagent for transfection Fugene6 (available from Roche Company). The transfected plasmid was maintained in a CO2 incubator for 6 to 7 hours, then the cells were recovered using a 10% fetal calf serum-containing DMEM/Ham's-F12 and the cells were inoculated in each well of a poly-D-lysine coat 96-well plate (BD-Biocoat) at a density of 70,000 cells/well.
To each well of the 96-well plate, each test compound was dissolved in a 0.1% BSA-containing Assay Buffer in an amount of 50 μl/well, and then any change of the intensity of fluorescence was monitored over 3 minutes using FLEX Station (available from Molecular Devices Company).
Method for the Determination of EC50:
The difference (RFU (Max-Min)) between the maximum and minimum fluorescent intensities observed for each well before and after the addition of each specific test compound was determined by the automatic calculation using FLEX Station. The activity rate was calculated while the RFU (Max-Min) value observed when adding the compound at the maximum concentration was defined to be 100% and the RFU (Max-Min) value observed when using the 0.1% BSA-containing Assay Buffer free of any test compound was defined to be 0%, followed by subjecting the resulting data to the curve-fitting procedures using the spreadsheet software Xfit or Graph-Pad-Prism to thus determine the EC50 which was the concentration of the compound at the activity rate of 50%.
In addition, the same EC50-determining procedures used above were repeated except for using other dipeptides as Comparative Examples.

The record followed here is US8541379B2 (Ajinomoto Co., Inc., priority 2009, dated 2013).

As a reminder, the EC50 is the concentration needed to bring the measured effect to its halfway point.

For `CCC[C@H](NC(=O)CC[C@H](N)C(=O)O)C(=O)O` [γ-Glu-Nva, γ-L-glutamyl-L-norvaline], the EC50 (293E cells transfected with hCaSR/pcDNA3.1, Calcium 4 fluorescence, FLEX Station) was 120 nM. Moreover, the CaSR agonist activity result (compared with other dipeptides) was “strong CaSR agonist activity comparable to that observed for γ-Glu-Cys”.
